# Test results published in patent US6541495B1, “Carboxylic acid derivatives as inhibitors of hyperproliferation diseases” (Pfizer INC, priority 1999, dated 2003).
# pIC50: −log10 of the molar value.
# Target: T1, VEGF/GAG (glycosaminoglycan) binding (purified VEGF165, [125I]heparin-16-mer) (Homo sapiens, UniProt P15692)
# T1 construct: purchased Repligen, Inc
# T1 sequence (P15692 27-191 isoform P15692-4): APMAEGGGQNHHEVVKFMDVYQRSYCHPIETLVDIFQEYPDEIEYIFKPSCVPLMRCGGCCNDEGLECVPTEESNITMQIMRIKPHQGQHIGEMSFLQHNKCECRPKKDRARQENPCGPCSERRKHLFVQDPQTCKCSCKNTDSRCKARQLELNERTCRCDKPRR
# Assay: VEGF/GAG (glycosaminoglycan) binding inhibition, [125I]heparin-16-mer filter plate assay
# Conditions: activity data for representative compounds of formula I; in vitro VEGF165 / [125I]heparin-16-mer binding, 60 minutes at room temperature
# Experimental: The in vitro activity of the compounds of formula I in inhibiting VEGF/GAG (glycosaminoglycan) binding may be measured using the assay described in U.S. Pat. No. 5,795,860, the subject matter of which is incorporated herein by reference.
# Using mixed cellulose ester 96-well filter plates, 150 μL of Dulbeccos PBS (phosphate buffered saline) containing 10% ovalbumin is added. Compound (5.0 μL) is added at a final concentration of 1.8 μM. Compounds are dissolved in 8% DMSO (final DMSO concentration is 0.16%) and tested at concentrations of 32, 10, 3.2, 1.0, 0.32 and 0.10 μM. A mixture of [^125I]heparin-16-mer (4500 cpm per well), purified VEGF165 (20 nM final concentration/well, prepared by Repligen, Inc.) and Dulbeccos PBS with 10% ovalbumin is added to the 96-well plate in a volume of 100 μL. Nonspecific binding is defined using 10 μM heparin-sodium from porcine intestinal mucosa. The assay plate is incubated for 60 minutes at room temperature, filtered using a Millipore filtration apparatus, the plastic bottom plate is removed and the filter plate is allowed to completely dry. The plate bottom is sealed with plastic plate seal and 25 μL of scintillation cocktail is added to each well. The top plate is sealed and is counted for radioactivity on a Microbeta Scintillation Counter. The assay is run in a final volume of 250 μL.
row,SMILES,pIC50
1,C=CCOC(Cc1ccc2oc(Cc3nc(-c4ccccc4)oc3C)cc2c1)C(=O)O (stereo not drawn) [2-Allyloxy-3-[2-(5-methyl-2-phenyl-oxazol-4-ylmethyl)-benzofuran-5-yl]-propionic acid],4.89
2,Cc1oc(-c2ccccc2)nc1Cc1cc2cc(CC(OCCCO)C(=O)O)ccc2o1 (stereo not drawn) [2-(3-Hydroxy-propoxy)-3-[2-(5-methyl-2-phenyl-oxazol-4-ylmethyl)-benzofuran-5-yl]-propionic acid],4.85
3,CSC(Cc1ccc2oc(Cc3nc(-c4cccc(C)c4)oc3C)cc2c1)C(=O)O (stereo not drawn) [2-Methylsulfanyl-3-[2-(5-methyl-2-m-tolyl-oxazol-4-ylmethyl)-benzofuran-5-yl]-propionic acid],5.10
4,Cc1oc(-c2ccccc2)nc1Cc1cc2cc(CCC(=O)O)ccc2o1 [3-[2-(5-Methyl-2-phenyl-oxazol-4-ylmethyl)-benzofuran-5-yl]-propionic acid],5.17
5,CSC(Cc1ccc(OCCc2nc(-c3ccccc3)oc2C)cc1)C(=O)O (stereo not drawn) [3-{4-[2-(5-Methyl-2-phenyl-oxazol-4-yl)-ethoxy]-phenyl}-2-methylsulfanyl-propionic acid],5.35

# The next compounds have a higher pIC50 than those just listed; values first:
row,pIC50,SMILES
1,5.70,Cc1oc(-c2ccccc2)nc1Cc1cc2cc(CC(Oc3ccccc3)C(=O)O)ccc2o1 (stereo not drawn) [3-[2-(5-Methyl-2-phenyl-oxazol-4-ylmethyl)-benzofuran-5-yl]-2-phenoxy-propionic acid]
2,6.10,CCCCCCCCSC(Cc1ccc2oc(Cc3nc(-c4ccccc4)oc3C)cc2c1)C(=O)O (stereo not drawn) [3-[2-(5-Methyl-2-phenyl-oxazol-4-ylmethyl)-benzofuran-5-yl]-2-octylsulfanyl-propionic acid]
3,5.59,Cc1oc(-c2ccccc2)nc1Cc1cc2cc(CC(SCc3ccccc3)C(=O)O)ccc2o1 (stereo not drawn) [2-Benzylsulfanyl-3-[2-(5-methyl-2-phenyl-oxazol-4-ylmethyl)-benzofuran-5-yl]-propionic acid]
4,5.82,CCCSC(Cc1ccc2oc(Cc3nc(-c4ccccc4)oc3C)cc2c1)C(=O)O (stereo not drawn) [3-[2-(5-Methyl-2-phenyl-oxazol-4-ylmethyl)-benzofuran-5-yl]-2-propylsulfanyl-propionic acid]
